What was measured:
[1] = test system: MiaPaca-2 pancreatic tumor xenograft; assay: Human pancreatic tumor xenograft in nude mice, subcutaneous treatment; assay type: in vivo
Experimental: The test was carried out comparing the anti-tumor activity of cortexolone 17α-benzoate at two different dosages (8.0 mg/kg, corresponding approximately at 230 μM, and 40 mg/kg, corresponding approximately at 1150 μM), versus the vehicle (i.e. 0.4% (v/v) tween 80 and 0.5% (w/v) carboxymethylcellulose in normal saline) and versus the comparator Cyproterone Acetate at two different dosages (7.4 mg/kg and 37 mg/kg).
1×10^6 MiaPaca-2 cells suspended in matrigel were subcutaneously injected into 6 week old athymic nude mice.
The treatment with the tested compounds, with the vehicle and with the comparative compound, was initiated after the tumor volume has reached 50 mm3 after transplantation. All compounds were injected 100 μL/mouse subcutaneously of low dose solution (approximately 230 μM) or 100 μL/mouse of high dose solution (approximately 1150 μM) of cortexolone 17α-benzoate, vehicle and cyproterone acetate, respectively. Compounds and controls were administered subcutaneously daily for 28 days.
Tumors were measured every 4 days with a digital caliper.
The results are plotted in FIG. 1 as average change in tumor volume relative to the start of treatment. Tumor volume was calculated according to the formula 0.5236(r1)^2(r2) where r1<r2.
The test was carried out comparing the anti-tumor activity of cortexolone 17α-valerate-21-propionate (CB-03-10) at two different dosages (approximately 8.6 mg/kg and 43 mg/kg) versus the vehicle (i.e. 0.4% (v/v) tween 80 and 0.5% (w/v) carboxymethylcellulose in normal saline) and versus the comparator Cyproterone Acetate at two different dosages (7.4 mg/kg and 37 mg/kg).
The treatment with the tested compound, with the vehicle and with the comparative compound was initiated after the tumor has reached a volume of 50 mm3 after implantation, injecting subcutaneously 100 μL/mouse of low dose solution (approximately 230 μM) or 100 μL/mouse of high dose solution (approximately 1150 μM) of cortexolone 17α-valerate-21-propionate (CB-03-10), vehicle and cyproterone acetate, respectively. Compounds and controls were administered subcutaneously daily for 28 days.
The results are plotted in FIG. 2 as average change in tumor volume relative to the start of treatment. Tumor volume was calculated according to the formula 0.5236(r1)^2(r2) where r1<r2.
CPA a well-known anti-androgen was used as control. Briefly 1×10^6 MiaPaca2 cells suspended in matrigel were subcutaneously (SC) injected into 6 week old male athymic nude mice. Tumors were measured every 4 days with a digital caliper. Tumor volume was calculated according to the formula: 0.5236(r1)2(r2) where r1<r2. Treatment with CB-03-10 and controls compounds was initiated after the tumor had reached 50 mm3. Compounds diluted in DMSO/2-hydroxypropyl b-cyclodextrin (vehicle) were injected subcutaneously (SC) daily (100 μL/mouse) at the concentration of 40 mg/Kg daily for 28 consecutive days.

Glucocorticoid Receptor = biological target: T1, Glucocorticoid Receptor (Homo sapiens, UniProt P04150); assay: GR transcriptional reporter assay, agonist mode; assay type: cell-based
T1 construct: endogenous in cells; host or cells: human kidney epithelial cells
T1 sequence (P04150 1-777): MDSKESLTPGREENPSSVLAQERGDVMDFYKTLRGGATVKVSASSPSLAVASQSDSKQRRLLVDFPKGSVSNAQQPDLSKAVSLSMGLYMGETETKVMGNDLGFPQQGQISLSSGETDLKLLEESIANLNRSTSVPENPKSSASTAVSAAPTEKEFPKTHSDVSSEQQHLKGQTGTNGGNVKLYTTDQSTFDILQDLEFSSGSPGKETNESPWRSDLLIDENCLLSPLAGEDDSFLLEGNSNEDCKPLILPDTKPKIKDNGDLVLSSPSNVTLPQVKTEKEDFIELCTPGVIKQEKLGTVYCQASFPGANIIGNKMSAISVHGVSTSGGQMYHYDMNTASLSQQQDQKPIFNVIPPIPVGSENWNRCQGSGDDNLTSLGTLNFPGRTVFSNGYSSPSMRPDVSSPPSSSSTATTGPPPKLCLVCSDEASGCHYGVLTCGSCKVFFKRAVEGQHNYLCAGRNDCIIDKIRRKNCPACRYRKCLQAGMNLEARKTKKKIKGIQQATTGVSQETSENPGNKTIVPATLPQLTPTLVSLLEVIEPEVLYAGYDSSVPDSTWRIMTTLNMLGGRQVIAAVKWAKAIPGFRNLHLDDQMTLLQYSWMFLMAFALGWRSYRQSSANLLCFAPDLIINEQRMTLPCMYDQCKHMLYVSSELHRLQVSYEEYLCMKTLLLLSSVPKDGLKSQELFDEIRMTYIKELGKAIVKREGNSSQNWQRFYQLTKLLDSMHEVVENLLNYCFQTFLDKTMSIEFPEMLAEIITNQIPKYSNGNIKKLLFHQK
Experimental: The androgen and glucocorticoid hormones elicit divergent and often opposing effects in cells, tissues, and animals. […] CB-03-10 GR antagonist and agonist activities were tested in an in vitro assay. Briefly, human kidney epithelial cells were transfected with DNA construct containing GR binding sites linked to luminescent based reporter molecule. After 24 hours, cells were treated under antagonist or agonist modes. After an additional 24 hours, luminescence which is proportional to GR agonist transcriptional activity was quantitated.
Agonist Assay—was based on induction of luminescence by CB-03-10
The agonist activity of CB-03-10 was compared to a RU486 which is known to not have agonist activity.

MiaPaca2 cells = assay: Apoptosis induction, Annexin V / propidium iodide flow cytometry; assay type: cell-based; conditions: 24 hours; control 11%; FIG. 9
Experimental: CB-03-10 was evaluated to determine if the mechanism of cytotoxicity on cancer cell lines was mediated by apoptosis and cell cycle arrest. Cancer cell lines were seeded in 6-well flat bottom plates. After 24 hours test compounds or DMSO vehicle (negative control) were added. After an additional 24 hours cells were scraped and stained with fluorescein conjugated Annexin V and propidium iodide and analyzed by flow cytometry.

Caspase 3/7 = assay: Caspase activity assay in MiaPaca2 cells; assay type: cell-based; conditions: 8, 24, 48 hours, FIG. 11
Experimental: To better analyze the phenomenon the enzymatic activity of Caspase 8 (initiator caspase for Extrinsic Pathway) and Caspase 9 (initiator caspase for Intrinsic Pathway) and of Caspases 3 and 7 (effector caspases) were measured.
After 8, 24, & 48 hours incubation with test compounds, cells were lysed in buffer containing the caspase 3/7 or 8 or 9 substrate and a stable luciferase in proprietary buffers. The lysates were transferred to white opaque plates before measuring luminescence in a Tecan S afire instrument. Parallel plates treated identically, were used to determine viable cells. All caspase activities were corrected for the number of viable cells.

[2] = In vivo pharmacokinetic in mouse plasma; conditions: mice; iv 20 mg/kg, SC 40 mg/kg, PO 40 mg/kg; after 1 hour
Experimental: The pharmacokinetic of CB-03-10 was evaluated in plasma of mice after intravenous (IV), subcutaneous (SC) and oral administration (PO).
Mice (3 per group) were administered with the following doses, blood was collected at the indicated times. Plasma samples were analyzed by HPLC-MS/MS.

Panc1 = conditions: human, 3 days

CCCCC(=O)O[C@]1(C(=O)COC(=O)CC)CC[C@H]2[C@@H]3CCC4=CC(=O)CC[C@]4(C)[C@H]3CC[C@@]21C [CB-03-10, cortexolone 17α-valerate-21-propionate]
pancreatic tumor size increase relative to initial tumor size ([1]; Example 6, high dose approximately 43 mg/kg (1150 μM, 100 μL/mouse) SC daily 28 days, for the time of treatment): less than 5 fold
pancreatic tumor size increase relative to the initial size ([1]; Example 22, 40 mg/Kg SC daily 28 days, during the treatment period): less than 5 fold
Median survival ([1]; Example 22, 40 mg/Kg SC daily 28 days, vehicle 60 days): 70 days
tumor size increase ([1]; Example 22, 14 days after treatment was stopped, vehicle 14-fold): 6 fold
in vivo antitumor activity compared with Cyproterone Acetate ([1]; Examples 5 and 6, FIG. 3, same animal model): antitumor activity higher than Cyproterone Acetate
GR agonist activity relative to that of 50 nM Dex (Glucocorticoid Receptor; at very high concentrations): 20%
GR agonist activity (Glucocorticoid Receptor; induction of luminescence, FIG. 8): essentially ineffective as GR agonist
cells in apoptosis (early and late apoptosis), total (MiaPaca2 cells): 28%
Caspase 3/7 induction / caspase activation profile (Caspase 3/7): already at 8 hours at and a really high level after 48 hours incubation
plasma level of intact compound [2]: undetectable
TI on Resting PBMC (Panc1): 2
TI on Stimulated PBMC (Panc1): 2
Therapeutic Index = IC50 resting PBMC/IC50 cancer cell (Panc1): 2
Therapeutic Index = IC50 stimulated PBMC/IC50 cancer cell (Panc1): 2
